From patent publication US20250034218A1, “ANTIMICROBIAL PEPTIDES” (BiomEdit, LLC, priority 2021, published 2025)
Ends that are not written are not given here.

How the values were obtained:
Giardia = Giardia plate assay, % of control (Table 3); format: cell-based; settings: Conc 10 (uM or %); plate G7
Source text: Data comparing AMP01 (wild type CAP 18 peptide (SEQ ID NO: 1) with various other agents is tabulated in Table 3. NTZ corresponds to nitazoxanide. ALB corresponds to albendazole.

[1] = test system: Bovine Respiratory Disease (BRD); settings: positive control treatment; reduces from approximately 30%; cited from earlier work
[2] = test system: Escherichia coli Dh5alpha; assay: MIC with diluted or undiluted trypsin and without trypsin (variant CAP18 peptides); format: cell-based; settings: compared to WT CAP18
Protocol: (§1) Testing of CAP18 variants for protease resistance using Escherichia coli Dh5alpha as an indicator organism. CAP18 variants were synthesized from GenScript, Inc, and solubilized in sterile purified water to a final concentration of 4 mg/ml. E. coli DH5alpha was grown overnight in 10 ml LB broth. Ten microliters of each CAP18 variant was treated with 2 μl (or 2 μl of the 10-fold diluted trypsin) of trypsin (0.25%, Sigma Aldrich) and incubated at 37° C. for 2 or 5 minutes in a PCR machine. An MIC assay was set up using trypsin-treated CAP18 variants in a 96-well plate. Briefly, the peptides were serially diluted 2-fold in LB broth to achieve a final volume of 50 μl in each well and 50 μl of the E. coli DH5alpha culture adjusted to a concentration of 2×10^6 cells/ml was added into each well. Appropriate controls (media only control, no CAP18 control) were included on the same plate. The plates were incubated at 37° C. for 24-48 hours and MIC for each variant was recorded. The experiment was repeated 3 times.
Numerous variant CAP18 peptides were tested to determine and assess their resistance to protease. In each assessment, the variant CAP18 peptides were compared to wild type CAP18 rabbit sequence ([…] (SEQ ID NO:1)). Peptides were evaluated using trypsin diluted 1:10, 1:2 and undiluted. Experiments were conducted in duplicate. In each instance minimal inhibitory concentration (MIC) of the peptide was determined in the presence of the applicable diluted or undiluted trypsin and in the absence of trypsin. Experiments l and 2 are duplicate assessments with 1:10 diluted trypsin. Experiments 3 and 4 are duplicate assessments with 1:2 diluted trypsin. Experiments 5 and 6 are duplicate assessments with undiluted trypsin.

E. coli DH5alpha [3] = format: cell-based, Escherichia coli; settings: peptide treated with proteinase K at 37° C. before MIC assay
Protocol: CAP18 peptide variants single mutants were evaluated for resistance to proteinase K. Peptides were subjected to proteinase K treatment and then assessed for bacterial cell killing (against E. coli) in a MIC assay.
as §1, with “CAP18” for “Testing of CAP18 variants for protease resistance using Escherichia coli Dh5alpha as an indicator organism. CAP18”, “μl” for “μl (or 2 μl”, “proteinase K (Qjagen, >600 mAU/ml)” for “the 10-fold diluted trypsin) of trypsin (0.25%, Sigma Aldrich)”, “machine. The samples were then incubated at 98° C. for 5 minutes to inactivate proteinase K.” for “machine.”, “proteinase K-treated” for “trypsin-treated”

E. coli DH5 alpha = format: cell-based, Escherichia coli
Protocol: A MIC assay was set up using heat treated CAP18 variants in a 96-well plate. […] Appropriate controls (media only control, no CAP18 control) were included on the same plate. The plates were incubated at 37° C. for 24-48 hours and MIC for each variant was recorded. The experiment was repeated 3 times.

E. coli DH5alpha [4] = format: cell-based, Escherichia coli; settings: peptide treated with trypsin at 37° C. before MIC assay
Protocol: CAP18 peptide variants single mutants were evaluated for resistance to trypsin. Peptides were subjected to trypsin protease treatment and then assessed for bacterial cell killing (against E. coli) in a MIC assay.
as §1, with “CAP18” for “Testing of CAP18 variants for protease resistance using Escherichia coli Dh5alpha as an indicator organism. CAP18”, “machine. The samples were then incubated at 98° C. for 5 minutes to inactivate trypsin.” for “machine.”

Row | Compound | % of control MV (Giardia) | lung consolidation [1] | activity (MIC) and protease resistance [2] | Resistance to proteinase K (MIC, ug/ml) (E. coli DH5alpha [3]) | Thermotolerance at 90 for 5 minutes (MIC, ug/ml) (E. coli DH5 alpha) | Resistance to trypsin (MIC, ug/ml) (E. coli DH5alpha [4])
1 | CCCSc1ccc2nc(NC(=O)OC)[nH]c2c1 [ALB, albendazole] | 1.5% |  |  |  |  | 
2 | CC(=O)Oc1ccccc1C(=O)Nc1ncc([N+](=O)[O-])s1 [NTZ, nitazoxanide] | 0.6% |  |  |  |  | 
3 | CCCNC[C@]1(O)[C@H](C)O[C@@H](O[C@H]2[C@H](C)[C@@H](O[C@@H]3O[C@H](C)C[C@H](N(C)C)[C@H]3O)[C@](C)(O)C[C@@H](C)CN[C@H](C)[C@@H](O)[C@](C)(O)[C@@H](CC)OC(=O)[C@@H]2C)C[C@@]1(C)OC [tulathromycin] |  | ~5% |  |  |  | 
4 | CWTKSIPPKPCGCRKPLRKIRNKIKEKLKKIGQKIQGLLPKLAPRTDY (Description of sequence: Mutation Sequence) [SEQ ID NO: 22] |  |  | better activity (lower MIC) and protease resistance |  |  | 
5 | CWTKSIPPKPCGLRKILKKIKNKIKEKLKKIGQKIQGLLPKLAPRTDY (Description of sequence: Mutation Sequence) [SEQ ID NO: 19] |  |  | better activity (lower MIC) and protease resistance |  |  | 
6 | CWTKSIPPKPCGLRKKLKKIRNKIKEKLKKIGQKIQGLLPKLAPRTDY (Description of sequence: Mutation Sequence) [SEQ ID NO: 20] |  |  | better activity (lower MIC) and protease resistance |  |  | 
7 | CWTKSIPPKPCGLRKRLKKIKNKIKEKLKKIGQKIQGLLPKLAPRTDY (Description of sequence: Mutation Sequence) [SEQ ID NO: 18] |  |  | effective at the lowest concentration (lowest MIC) and was the most protease resistant in all experiments |  |  | 
8 | CWTKSIPPKPCGLRKRLRKIKNKIKEKLKKIGQKIQGLLPKLAPKTDY (Description of sequence: Mutation Sequence) [SEQ ID NO: 21] |  |  | better activity (lower MIC) and protease resistance |  |  | 
9 | GIRKRLRKFRNKIKEKLKKIGQKIQGLLPKLAPRTDY [C13] |  |  |  | >400 µg/mL | 200 µg/mL | 100 µg/mL
10 | GLKKRLRKFRNKIKEKLKKIGQKIQGLLPKLAPRTDY [C7] |  |  |  | >400 µg/mL | 200 µg/mL | 50 µg/mL
11 | GLRKKLRKFRNKIKEKLKKIGQKIQGLLPKLAPRTDY [C8] |  |  |  | 400 µg/mL | 100 µg/mL | 50 µg/mL
12 | GLRKRIRKFRNKIKEKLKKIGQKIQGLLPKLAPRTDY [C14] |  |  |  | >400 µg/mL | 100 µg/mL | 50 µg/mL
13 | GLRKRLKKFRNKIKEKLKKIGQKIQGLLPKLAPRTDY [C9] |  |  |  | 400 µg/mL | 50 µg/mL | 400 µg/mL
14 | GLRKRLRKFKNKIKEKLKKIGQKIQGLLPKLAPRTDY [C10] |  |  |  | 400 µg/mL | 100 µg/mL | 50 µg/mL
15 | GLRKRLRKFRNKIKEKIKKIGQKIQGLLPKLAPRTDY [C15] |  |  |  | >400 µg/mL | 200 µg/mL | 50 µg/mL
16 | GLRKRLRKFRNKIKEKLKKIGQKIQGLLPKIAPRTDY [C16] |  |  |  | >400 µg/mL | 100 µg/mL | 50 µg/mL
17 | GLRKRLRKFRNKIKEKLKKIGQKIQGLLPKLAPKTDY [C11] |  |  |  | >400 µg/mL | 200 µg/mL | 200 µg/mL
18 | GLRKRLRKFRNKIKEKLKKIGQKIQGLLPKLAPRPDY [C6] |  |  |  | >400 µg/mL | 1200 µg/mL | >400 µg/mL
19 | GLRKRLRKFRNKIKEKLKKIGQKIQGLLPKPAPRTDY [C5] |  |  |  | >400 µg/mL | >400 µg/mL | 400 µg/mL
20 | GLRKRLRKFRNKIKPKLKKIGQKIQGLLPKLAPRTDY [C4] |  |  |  | >400 µg/mL | 400 µg/mL | >400 µg/mL
21 | GLRKRLRKFRPKIKEKLKKIGQKIQGLLPKLAPRTDY [C3] |  |  |  | >400 µg/mL | >400 µg/mL | >400 µg/mL
22 | GLRKRLRKIRNKIKEKLKKIGQKIQGLLPKLAPRTDY [C12] |  |  |  | 200 µg/mL | 100 µg/mL | 100 µg/mL
23 | GLRKRLRPFRNKIKEKLKKIGQKIQGLLPKLAPRTDY [C2] |  |  |  | >400 µg/mL | 100 µg/mL | >400 µg/mL
24 | GLRPRLRKFRNKIKEKLKKIGQKIQGLLPKLAPRTDY [C1] |  |  |  | >400 µg/mL | 200 µg/mL | 100 µg/mL
